Data on five molecules can be found in ChEMBL document CHEMBL1201862, “PubChem BioAssay data set” (2004).

The structures appear in SMILES notation.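 1) Cells in 96-well plates. 2) Compound, 48 h, 5 concentrations. 3) Linear interpolation between surrounding doses. 4) Unreached endpoint = highest concentration. GI50: concentration for 50% inhibition of growth.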 Active and inactive are the calls of the source. Rule as the data show it: active = GI50 up to about 1.1 µM and inactive = higher. A value given as a limit tells only on which side of the number the result lay.

Test systems include NCI/ADR-RES; M19-MEL; RXF 393; MOLT-4; UO-31; EKVX; DLD-1; SK-MEL-28; UACC-257; SF-539; A549; SNB-19; SF-295; SNB-78; LOX IMVI; UACC-62.
Common to all, as to assay: NCI anticancer screen, dose series, 48 h

As for `COc1cc(/C=C/C(=O)O)ccc1C(=O)OCc1ccccc1`, the GI50 with NCI/ADR-RES, in the assay on M19-MEL, in the assay with RXF 393, in the assay on MOLT-4, in the assay on UO-31 and with EKVX was > 100 µM (inactive) throughout. Also, the GI50 with DLD-1, in the assay with SK-MEL-28, with UACC-257, in the assay with SF-539, in the assay on A549 and in the assay on SNB-19 was > 100 µM (inactive) throughout. Also, the GI50 with SF-295, with SNB-78, with LOX IMVI and in the assay with UACC-62 was > 100 µM (inactive) in each case.
With `CC1(O)C=CC(=O)C=C1`, the GI50 with M19-MEL is 22.6 µM (inactive); in the assay on RXF 393, 21.6 µM (inactive); in the assay with MOLT-4, 19.2 µM (inactive); in the assay with UO-31, 36.6 µM (inactive); in the assay on EKVX, 47.3 µM (inactive); in the assay on DLD-1, 12.4 µM (inactive). The GI50 in the assay with SK-MEL-28 was 18.8 µM (inactive); in the assay on UACC-257 it was 17.7 µM (inactive); in the assay with SF-539 it was 23.5 µM (inactive); with A549, > 76.4 µM (inactive); in the assay with SNB-19, 25.7 µM (inactive); with SF-295, 57.1 µM (inactive). In addition, the GI50 with SNB-78 is 34.8 µM (inactive); in the assay with LOX IMVI, 20.4 µM (inactive); in the assay on UACC-62 it was 18.5 µM (inactive).
For `CN(C)CCNC(=O)c1cccc2c1nc(-c1cccnc1)c1ccccc12`, the GI50 in the assay with M19-MEL is 5 µM (inactive); in the assay on RXF 393, 4.71 µM (inactive); in the assay on MOLT-4, 0.311 µM (active); with UO-31 it was 2.69 µM (inactive); in the assay on EKVX, 4.24 µM (inactive); in the assay with DLD-1, 4.1 µM (inactive). The GI50 in the assay with SK-MEL-28 is 11.1 µM (inactive); with UACC-257, 3.89 µM (inactive); with SF-539, 2.65 µM (inactive); in the assay with A549, 1.21 µM (inactive); in the assay with SNB-19, 7.05 µM (inactive); in the assay on SF-295 it was 4.72 µM (inactive). For the same molecule, the GI50 with SNB-78 was 8.18 µM (inactive); in the assay with LOX IMVI, 2.15 µM (inactive); in the assay with UACC-62, 3.57 µM (inactive).
In the case of `CCCCCCCCCCCC(=O)C1=C(O)CCC(O)C1=O` (stereo unspecified), the GI50 with M19-MEL was 19.5 µM (inactive); in the assay with RXF 393, 35.1 µM (inactive); in the assay with MOLT-4, 17.9 µM (inactive); in the assay with UO-31 it was 19.7 µM (inactive); in the assay with EKVX, 5.86 µM (inactive); with DLD-1, 18.2 µM (inactive). Moreover, the GI50 was 16.1 µM (inactive) with SK-MEL-28; 14.7 µM (inactive) in the assay on UACC-257; 19.1 µM (inactive) with SF-539; 29.9 µM (inactive) in the assay with A549; 9.08 µM (inactive) in the assay on SNB-19; 8.17 µM (inactive) with SF-295. In addition, the figures for the GI50 in the assay on SNB-78, in the assay on LOX IMVI and in the assay on UACC-62 were 21.9 µM (inactive), 11.3 µM (inactive) and 10.8 µM (inactive), respectively.
On to `COC(=O)C#CCC1CCCC1C1SCCS1` (stereo unspecified), for which the GI50 was > 100 µM (inactive) with M19-MEL; > 100 µM (inactive) with RXF 393; 21.2 µM (inactive) in the assay on MOLT-4; > 100 µM (inactive) in the assay on UO-31; > 100 µM (inactive) with EKVX; 73.5 µM (inactive) with DLD-1. The GI50 in the assay with SK-MEL-28 is > 100 µM (inactive); in the assay on UACC-257 it was 51.3 µM (inactive); with SF-539 it was 99.1 µM (inactive); in the assay on A549 it was > 100 µM (inactive); with SNB-19, 91.4 µM (inactive); with SF-295 it was 90.6 µM (inactive). In addition, the GI50 in the assay on SNB-78 is 23.6 µM (inactive); in the assay with LOX IMVI it was 50.2 µM (inactive); in the assay with UACC-62, 35.8 µM (inactive).
